Test results as given in patent US3952050A, “Cyclopent [a] indene compounds” (Allen & Hanburys Limited, priority 1972, dated 1976).
Counter-ions that a name gives are not always drawn.

Tested on: not listed separately
Experiment: Phenylquinone Writhing test (analgetic action)
Format: in vivo
Conditions: po
Text: (§1) Particularly preferred meanings for the groups R1 and R2 are hydrogen C1-4 alkyl, in particular methyl, or benzyl. Particularly preferred meanings for R3 are hydrogen or C1-4alkyl in particular methyl. Particularly preferred meanings for R5 and R6 are hydrogen, C1-4 alkyl substituted by C1-4 alkylamino or by C1-4 dialkylamino or by phenyl or by 4-fluorobenzoyl or in which the groups together with the adjacent nitrogen atom form a morpholino or piperidino moiety; another preferred group for R5 or R6 is carbamoyl (--CONH2). Specific preferred compounds and salts are those the preparation of which is described in the Examples. The compounds of the invention have marked analgetic activity and are devoid of respiratory depressant action. […] These characteristics are often associated with non-narcotic analgetics in man. For example, in Table I, the compound 1,2,3,3aα,8,8aα-hexahydro-N-methylcyclopent[a]inden-1α-amine, maleate (AH 9197) and the diastero-isomer 1,2,3,3aα,-8,8aα-hexahydro-N-methylcyclopent[a]inden-1β-amine maleate (AH 8538) are compared with codeine in standard pharmacological tests for evaluating analgetic action. The N-ethyl analogue of AH 9197 (N-ethyl-1,2,3,3aα,8,8aα-hexahydrocyclopent[a]inden-1α-amine) maleate (AH 9903) is also included.
For CN[C@H]1CC[C@@H]2c3ccccc3C[C@H]12 (relative stereo) [Ex. 1, 1,2,3,3aα,8,8aα-Hexahydro-N-methylcyclopent[a]inden-1α-amine, maleate], the ED50 was 7.4 mg/kg.
With CCN[C@H]1CC[C@@H]2c3ccccc3C[C@H]12 (relative stereo) [Ex. 2, N-Ethyl-1,2,3,3aα,8,8aα-hexahydrocyclopent[a]inden-1α-amine, maleate] the ED50 was 4.6 mg/kg.
In the case of CN[C@@H]1CC[C@@H]2c3ccccc3C[C@@H]21 (relative stereo) [Ex. 3, 1,2,3,3aα,8,8aα -Hexahydro-N-methylcyclopent[a]inden-1β-amine, maleate], the ED50 is reported as 11.9 mg/kg.
Work on COc1ccc2c3c1O[C@H]1[C@@H](O)C=C[C@H]4[C@@H](C2)N(C)CC[C@@]341 [Codeine, codeine, reference compound] yielded an ED50 of 5.8 mg/kg.

Tested on: not listed separately
Experiment: Hot plate test (analgetic action)
Format: in vivo
Conditions: po
Text: as §1
Compound CN[C@H]1CC[C@@H]2c3ccccc3C[C@H]12 (relative stereo) [Ex. 1, 1,2,3,3aα,8,8aα-Hexahydro-N-methylcyclopent[a]inden-1α-amine, maleate] has an ED50 of 10 mg/kg.
With CCN[C@H]1CC[C@@H]2c3ccccc3C[C@H]12 (relative stereo) [Ex. 2, N-Ethyl-1,2,3,3aα,8,8aα-hexahydrocyclopent[a]inden-1α-amine, maleate] the ED50 was 9.5 mg/kg.
Compound COc1ccc2c3c1O[C@H]1[C@@H](O)C=C[C@H]4[C@@H](C2)N(C)CC[C@@]341 [Codeine, codeine, reference compound] has an ED50 of 15.5 mg/kg.

Same assay, conditions: sc
Work on CN[C@H]1CC[C@@H]2c3ccccc3C[C@H]12 (relative stereo) [Ex. 1, 1,2,3,3aα,8,8aα-Hexahydro-N-methylcyclopent[a]inden-1α-amine, maleate] yielded an ED50 of 0.44 mg/kg.
With CCN[C@H]1CC[C@@H]2c3ccccc3C[C@H]12 (relative stereo) [Ex. 2, N-Ethyl-1,2,3,3aα,8,8aα-hexahydrocyclopent[a]inden-1α-amine, maleate] the ED50 was 2.2 mg/kg.
CN[C@@H]1CC[C@@H]2c3ccccc3C[C@@H]21 (relative stereo) [Ex. 3, 1,2,3,3aα,8,8aα -Hexahydro-N-methylcyclopent[a]inden-1β-amine, maleate] showed an ED50 of 15 mg/kg.
With COc1ccc2c3c1O[C@H]1[C@@H](O)C=C[C@H]4[C@@H](C2)N(C)CC[C@@]341 [Codeine, codeine, reference compound] the ED50 was 11.8 mg/kg.

Tested on: Dog Tooth-pulp
Experiment: Dog Tooth-pulp Stimulation test (analgetic action)
Format: in vivo
Conditions: Canis lupus familiaris, po, read-out: Minimum effective dose, Dog Tooth-pulp Stimulation
Text: as §1
CN[C@H]1CC[C@@H]2c3ccccc3C[C@H]12 (relative stereo) [Ex. 1, 1,2,3,3aα,8,8aα-Hexahydro-N-methylcyclopent[a]inden-1α-amine, maleate] showed a minimal effective dose of 3.7 mg/kg.
CCN[C@H]1CC[C@@H]2c3ccccc3C[C@H]12 (relative stereo) [Ex. 2, N-Ethyl-1,2,3,3aα,8,8aα-hexahydrocyclopent[a]inden-1α-amine, maleate] gave a minimal effective dose of less than 5 mg/kg.
Compound CN[C@@H]1CC[C@@H]2c3ccccc3C[C@@H]21 (relative stereo) [Ex. 3, 1,2,3,3aα,8,8aα -Hexahydro-N-methylcyclopent[a]inden-1β-amine, maleate] has a minimal effective dose of 5 mg/kg.
In the case of COc1ccc2c3c1O[C@H]1[C@@H](O)C=C[C@H]4[C@@H](C2)N(C)CC[C@@]341 [Codeine, codeine, reference compound], the minimal effective dose is reported as 3.3 mg/kg.
